The test addresses purified human MMP-12 enzyme (Homo sapiens, UniProt P39900). Nature of the test: MMP-12 FRET assay. The following applies: substrate 20 μM, room temperature. Type of test: biochemical. An outline of the steps: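 Initial fluorescence rate (325/395 nm) of cleavage of MCA-Pro-Leu-Gly-Leu-Dpa(DNP)-Ala-Arg, 20 μM final, was followed for 30 min at room temperature after a 30 min enzyme–compound preincubation. Buffer: 50 mM HEPES pH 7.4, 100 mM NaCl, 5 mM CaCl2, 0.005% Brij-35, with 10% final DMSO. IC50 came from a Hill-type fit of rate versus inhibitor concentration.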
Chain of purified human MMP-12 enzyme (P39900 106-470): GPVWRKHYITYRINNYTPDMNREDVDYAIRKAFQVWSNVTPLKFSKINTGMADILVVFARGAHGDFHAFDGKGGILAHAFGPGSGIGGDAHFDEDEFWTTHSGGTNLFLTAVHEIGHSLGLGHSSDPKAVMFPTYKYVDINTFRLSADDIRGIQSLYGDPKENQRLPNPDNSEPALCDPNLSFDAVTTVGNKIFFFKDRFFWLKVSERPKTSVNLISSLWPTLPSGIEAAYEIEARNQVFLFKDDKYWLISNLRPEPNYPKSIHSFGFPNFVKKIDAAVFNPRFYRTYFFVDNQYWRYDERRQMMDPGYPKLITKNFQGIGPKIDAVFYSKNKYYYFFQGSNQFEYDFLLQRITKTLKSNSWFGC
The term IC50 denotes the concentration that inhibits the measured activity by half. A lower IC50 goes with inhibition by little substance. In turn, `CC(C)[C@H](NS(=O)(=O)c1ccc2c(c1)sc1ccc(-c3cc4ccccc4s3)cc12)C(=O)O` [Compound 46, (S)-2-(8-(benzo[b]thiophen-2-yl)dibenzo[b,d]thiophene-3-sulfonamido)-3-methylbutanoic acid] showed an IC50 of 289 nM.
`CC(C)[C@@H](NS(=O)(=O)c1ccc2c(c1)sc1cc(-c3ccccc3)ccc12)C(=O)O` [Compound 314, (R)-3-methyl-2-(7-phenyldibenzo[b,d]thiophene-3-sulfonamido)butanoic acid] returned an IC50 of 2.6 nM.
On to `CC(C)[C@H](NS(=O)(=O)c1ccc2c(c1)oc1ccc(-c3cc(Cl)oc3Cl)cc12)C(=O)O` [Compound 95, (S)-2-(8-(2,5-dichlorofuran-3-yl)dibenzo[b,d]furan-3-sulfonamido)-3-methylbutanoic acid], for which the IC50 was below 1.5 nM.
Molecule `CC(C)[C@H](NS(=O)(=O)c1ccc2c(c1)oc1ccc(-c3nc4ccccc4o3)cc12)C(=O)O` [Compound 194, (S)-2-(8-(benzo[d]oxazol-2-yl)dibenzo[b,d]furan-3-sulfonamido)-3-methylbutanoic acid] displayed an IC50 of 4.6 nM.
In turn, `CC(C)[C@H](NS(=O)(=O)c1ccc2c(c1)oc1ccc(-c3ncc(CN4CCN(C)CC4)s3)cc12)C(=O)O` [Compound 212, (S)-3-methyl-2-(8-(5-((4-methylpiperazin-1-yl)methyl)thiazol-2-yl)dibenzo[b,d]furan-3-sulfonamido)butanoic acid] yielded an IC50 of 86 nM.
As to `CC(C)[C@@H](NS(=O)(=O)c1ccc2oc3cc(-c4nc5ccccc5o4)ccc3c2c1)C(=O)O` [Compound 294, (R)-2-(7-(benzo[d]oxazol-2-yl)dibenzo[b,d]furan-2-sulfonamido)-3-methylbutanoic acid], the IC50 was 9.5 nM.
Turning to `Cc1nc(-c2ccc3oc4cc(S(=O)(=O)N[C@H](C(=O)O)C(C)C)ccc4c3c2)sc1C` [Compound 305, (S)-2-(8-(4,5-dimethylthiazol-2-yl)dibenzo[b,d]furan-3-sulfonamido)-3-methylbutanoic acid], half-maximal inhibition (IC50) was put at 1.6 nM.
`CC(C)[C@H](NS(=O)(=O)c1ccc2c(c1)oc1ccc(-c3ccsc3)cc12)C(=O)O` [Compound 28, (S)-3-methyl-2-(8-(thiophen-3-yl)dibenzo[b,d]furan-3-sulfonamido)butanoic acid] yielded an IC50 below 1.5 nM.
Under `CC(C)(C)c1nc(-c2ccc3oc4cc(S(=O)(=O)N[C@H](C(=O)O)c5ccccc5)ccc4c3c2)no1` [Compound 254, (S)-2-(8-(5-tert-butyl-1,2,4-oxadiazol-3-yl)dibenzo[b,d]furan-3-sulfonamido)-2-phenylacetic acid] stands 21 nM.
`CC(C)[C@H](NS(=O)(=O)c1ccc2c(c1)oc1ccc(C(=N)N(C)C(C)C)cc12)C(=O)O` [Compound 110, (S)-2-(8-(N-isopropyl-N-methylcarbamimidoyl)dibenzo[b,d]furan-3-sulfonamido)-3-methylbutanoic acid] displayed an IC50 of 425 nM.
Under `CC(C)Cn1cc(-c2ccc3c(c2)oc2ccc(S(=O)(=O)N[C@@H](C(=O)O)C(C)C)cc23)cn1` [Compound 173, (R)-2-(7-(1-isobutyl-1H-pyrazol-4-yl)dibenzo[b,d]furan-2-sulfonamido)-3-methylbutanoic acid] stands 80 nM; under `CC(C)[C@H](NS(=O)(=O)c1ccc2c(c1)oc1cc(-c3ccoc3)ccc12)C(=O)O` [Compound 79, (S)-2-(7-(furan-3-yl)dibenzo[b,d]furan-3-sulfonamido)-3-methylbutanoic acid], below 1.5 nM.
For the molecule `O=C(O)CNS(=O)(=O)c1ccc2c(c1)oc1ccc(-c3nccs3)cc12` [Compound 251, 2-(8-(thiazol-2-yl)dibenzo[b,d]furan-3-sulfonamido)acetic acid], the IC50 came to 17 nM.
Take `CC(C)[C@H](NS(=O)(=O)c1ccc2c(c1)oc1cc(-c3nccs3)ccc12)C(=O)O` [Compound 137, (S)-3-methyl-2-(7-(thiazol-2-yl)dibenzo[b,d]furan-3-sulfonamido)butanoic acid]: half-maximal inhibition (IC50) was put at 11 nM.

These data come from US20100227859A1, “TRICYCLIC COMPOUNDS AS MATRIX METALLOPROTEINASE INHIBITORS” (priority 2007, published 2010).
